Experiment [1] concerns the target T1, HIV-1 protease (Human immunodeficiency virus type 1 group M subtype B, UniProt P04585). As to the kind of experiment: biochemical. The conditions noted are these: read-out: HIV-1 FITC KI. In outline: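 Ki from two-fold serial inhibitor dilutions (24–48 concentrations) with 40 nM HIV-1 protease stock and 200 μM substrate stock, 90 min at room temperature; stopped with avidin beads. Reference inhibitor run in parallel; Ki by nonlinear least-squares fit.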

Experiment [2] addresses T1, HIV-1 protease. As to the kind of experiment: biochemical. The conditions noted are these: for inhibition at 0.123 µM: read-out: HIV-1 Protease % Inhib, dose 0.123 uM; for inhibition at 0.37 µM: read-out: HIV-1 Protease % Inhib, dose 0.370 uM; for inhibition at 1.1 µM: read-out: HIV-1 Protease % Inhib, dose 1.100 uM; for inhibition at 3.3 µM: read-out: HIV-1 Protease % Inhib, dose 3.300 uM; for inhibition at 10 µM: read-out: HIV-1 Protease % Inhib, dose 10.000 uM; for inhibition at 30 µM: read-out: HIV-1 Protease % Inhib, dose 30.000 uM. In outline:
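Biotinylated, FITC-labeled peptide substrate (20 μl of 0.2 μM) incubated with HIV-1 protease (10 μl of 0.1 μM) and compound in 0.1 M sodium acetate pH 5.5, 1.0 M NaCl, 0.05% NP-40, 1 h, room temperature, dark. Streptavidin beads then capture uncleaved substrate; filtered labeled product read by fluorescence, giving percent inhibition.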

As a reminder, the Ki is a measure of affinity in units of concentration, obtained from inhibition or displacement.

For `O=c1oc2c(c(O)c1C(c1cccc(NS(=O)(=O)c3cccc(C(F)(F)F)c3)c1)C1CC1)CCCCCC2` (centres unmarked) [Example 280, N-[3-[Cyclopropyl(5,6,7,8,9,10-hexahydro-4-hydroxy-2-oxo-2H-cycloocta[b]pyran-3-yl)methyl]phenyl]-3-(trifluoromethyl)-benzenesulfonamide], at HIV-1 protease [1], the Ki was found to be 3 nM. Further, on HIV-1 protease [2], the inhibition at 0.123 µM was 69.8%, the inhibition at 0.37 µM was 95.1%, the inhibition at 1.1 µM is 101% and the inhibition at 3.3 µM came to 110%. Further, on HIV-1 protease [2], the inhibition at 10 µM was 110% and the inhibition at 30 µM amounted to 114%.
Turning to `O=c1oc2c(c(O)c1C(c1cccc(NS(=O)(=O)c3ccccc3F)c1)C1CC1)CCCCCC2` (centres unmarked) [Example 281, N-[3-[Cyclopropyl(5,6,7,8,9,10-hexahydro-4-hydroxy-2-oxo-2H-cycloocta[b]pyran-3-yl)methyl]phenyl]-2-fluoro-benzenesulfonamide], on HIV-1 protease [1], the inhibitory constant (Ki) was 10.6 nM. Moreover, at HIV-1 protease [2], the inhibition at 0.123 µM was determined as 55.5%, the inhibition at 0.37 µM came out at 93.5%, the inhibition at 1.1 µM amounted to 99.3% and the inhibition at 3.3 µM worked out at 109%. For the same compound, on HIV-1 protease [2], the inhibition at 10 µM was determined as 105% and the inhibition at 30 µM was found to be 101%.
As for `O=c1oc2c(c(O)c1C(c1cccc(NS(=O)(=O)c3cc(Cl)cc(Cl)c3O)c1)C1CC1)CCCCCC2` (centres unmarked) [Example 284], at HIV-1 protease [1], the inhibition constant (Ki) was 12.2 nM. Besides, at HIV-1 protease [2], the inhibition at 0.123 µM is 37.5%, the inhibition at 0.37 µM was determined as 77%, the inhibition at 1.1 µM turned out to be 99.8% and the inhibition at 3.3 µM was 107%. For the same compound, at HIV-1 protease [2], the inhibition at 10 µM came to 107% and the inhibition at 30 µM was determined as 104%.
Regarding `O=c1oc2c(c(O)c1C(c1cccc(NS(=O)(=O)c3ccccc3C(F)(F)F)c1)C1CC1)CCCCCC2` (centres unmarked) [Example 286, N-[3-[Cyclopropyl(5,6,7,8,9,10-hexahydro4-hydroxy-2-oxo-2H-cycloocta[b]pyran-3-yl)methyl]phenyl]-2-(trifluoromethyl)-benzenesulfonamide], the inhibition constant Ki on HIV-1 protease [1] was 21.4 nM. Besides, at HIV-1 protease [2], the inhibition at 0.123 µM stood at 30%, the inhibition at 0.37 µM was determined as 62.4%, the inhibition at 1.1 µM came out at 83.3% and the inhibition at 3.3 µM is 92.3%. On HIV-1 protease [2], the inhibition at 10 µM was 97.4% and the inhibition at 30 µM turned out to be 93.7%.
`O=c1oc2c(c(O)c1C(c1cccc(NS(=O)(=O)c3cccc4nonc34)c1)C1CC1)CCCCCC2` (centres unmarked) [Example 290, N-[3-[Cyclopropyl(5,6,7,8,9,10-hexahydro-4-hydroxy-2-oxo-2H-cycloocta[b]pyran-3-yl)methyl]phenyl]-4-benzofurazansulfonamide]: on HIV-1 protease [1], the Ki is 2.7 nM. At HIV-1 protease [2], the inhibition at 0.123 µM is 90.3%, the inhibition at 0.37 µM is 115%, the inhibition at 1.1 µM was determined as 123% and the inhibition at 3.3 µM is 119%. At HIV-1 protease [2], the inhibition at 10 µM was found to be 126% and the inhibition at 30 µM was 114%.
For `Cc1nn(C)c(Cl)c1S(=O)(=O)Nc1cccc(C(c2c(O)c3c(oc2=O)CCCCCC3)C2CC2)c1` (centres unmarked) [Example 294, 5-Chloro-N-[3-[cyclopropyl(5,6,7,8,9,10-hexahydro-4-hydroxy-2-oxo-2H-cycloocta[b]pyran-3-yl)methyl]phenyl]-1,3-dimethyl-1H-pyrazole-4-sulfonamide], at HIV-1 protease [1], the Ki amounted to 139 nM. Besides, on HIV-1 protease [2], the inhibition at 0.37 µM stood at 20.9%, the inhibition at 1.1 µM came out at 52.9%, the inhibition at 3.3 µM was determined as 81.1% and the inhibition at 10 µM was determined as 94.7%. Further, the inhibition at 30 µM at HIV-1 protease [2] was determined as 110%.
For `O=C(NCc1ccc(S(=O)(=O)Nc2cccc(C(c3c(O)c4c(oc3=O)CCCCCC4)C3CC3)c2)s1)c1ccccc1` (centres unmarked) [Example 296, N-[[5-[[[3-[Cyclopropyl(5,6,7,8,9,10-hexahydro-4-hydroxy-2-oxo-2H-cycloocta[b]pyran-3-yl)methyl]phenyl]amino]sulfonyl]-2-thienyl]methyl]-benzamide], the Ki on HIV-1 protease [1] was 24 nM. Besides, on HIV-1 protease [2], the inhibition at 0.123 µM came to 14.6%, the inhibition at 0.37 µM stood at 74.8%, the inhibition at 1.1 µM turned out to be 95.5% and the inhibition at 3.3 µM worked out at 104%. On HIV-1 protease [2], the inhibition at 10 µM is 108% and the inhibition at 30 µM was determined as 114%.
With `O=c1oc2c(c(O)c1C(c1cccc(NS(=O)(=O)c3cc(S(=O)(=O)c4ccccc4)cs3)c1)C1CC1)CCCCCC2` (centres unmarked) [Example 298, N-[3-[Cyclopropyl(5,6,7,8,9,10-hexahydro-4-hydroxy-2-oxo-2H-cycloocta[b]pyran-3-yl)methyl]phenyl]4-(phenylsulfonyl)-2-thiophenesulfonamide], the inhibitory constant (Ki) at HIV-1 protease [1] was 2.5 nM. Further, at HIV-1 protease [2], the inhibition at 0.123 µM amounted to 67.4%, the inhibition at 0.37 µM was 84.6%, the inhibition at 1.1 µM is 94.6% and the inhibition at 3.3 µM came to 97.5%. On HIV-1 protease [2], the inhibition at 10 µM amounted to 101% and the inhibition at 30 µM is 100%.
Turning to `O=c1oc2c(c(O)c1C(c1cccc(NS(=O)(=O)c3ccc(S(=O)(=O)c4ccccc4)s3)c1)C1CC1)CCCCCC2` (centres unmarked) [Example 299, N-[3-[Cyclopropyl(5,6,7,8,9,10-hexahydro-4-hydroxy-2-oxo-2H-cycloocta[b]pyran-3-yl)methyl]phenyl]-5-(phenylsulfonyl)-2-thiophenesulfonamide], on HIV-1 protease [1], the Ki worked out at 2.3 nM. Besides, on HIV-1 protease [2], the inhibition at 0.123 µM worked out at 78.5%, the inhibition at 0.37 µM is 97.8%, the inhibition at 1.1 µM was determined as 97.5% and the inhibition at 3.3 µM worked out at 91.7%. For the same compound, at HIV-1 protease [2], the inhibition at 10 µM was found to be 104% and the inhibition at 30 µM worked out at 98.4%.
In the case of `O=c1oc2c(c(O)c1C(c1cccc(NS(=O)(=O)c3ccc(Cl)s3)c1)C1CC1)CCCCCC2` (centres unmarked) [Example 301, 5-Chloro-N-[3-[cyclopropyl(5,6,7,8,9,10-hexahydro-4-hydroxy-2-oxo-2H-cycloocta[b]pyran-3-yl)methyl]phenyl]-2-thiophenesulfonamide], the Ki on HIV-1 protease [1] stood at 4.8 nM. Besides, on HIV-1 protease [2], the inhibition at 0.123 µM came out at 74.7%, the inhibition at 0.37 µM is 91.2%, the inhibition at 1.1 µM was determined as 102% and the inhibition at 3.3 µM was determined as 100%. For the same compound, at HIV-1 protease [2], the inhibition at 10 µM is 104% and the inhibition at 30 µM stood at 114%.
`O=c1oc2c(c(O)c1C(c1cccc(NS(=O)(=O)c3cc(Cl)c(Cl)s3)c1)C1CC1)CCCCCC2` (centres unmarked) [Example 302, 4,5-Dichloro-N-[3-[cyclopropyl(5,6,7,8,9,10-hexahydro-4-hydroxy-2-oxo-2H-cycloocta[b]pyran-3-yl)methyl]phenyl]-2-thiophenesulfonamide]: at HIV-1 protease [1], the inhibition constant Ki is 2.7 nM. On HIV-1 protease [2], the inhibition at 0.123 µM is 78.6%, the inhibition at 0.37 µM came to 97.8%, the inhibition at 1.1 µM was 105% and the inhibition at 3.3 µM was 113%. Moreover, at HIV-1 protease [2], the inhibition at 10 µM is 115% and the inhibition at 30 µM was determined as 112%.
On to `O=c1oc2c(c(O)c1C(c1cccc(NS(=O)(=O)c3cc(Br)c(Br)s3)c1)C1CC1)CCCCCC2` (centres unmarked) [Example 303, 4,5-Dibromo-N-[3-[cyclopropyl(5,6,7,8,9,10-hexahydro-4-hydroxy-2-oxo-2H-cycloocta[b]pyran-3-yl)methyl]phenyl]-2-thiophenesulfonamide], for which, at HIV-1 protease [1], the Ki was 5 nM. At HIV-1 protease [2], the inhibition at 0.123 µM turned out to be 67.4%, the inhibition at 0.37 µM came out at 96.5%, the inhibition at 1.1 µM was 97.7% and the inhibition at 3.3 µM amounted to 109%. In addition, at HIV-1 protease [2], the inhibition at 10 µM was 110% and the inhibition at 30 µM was determined as 98%.
On to `O=c1oc2c(c(O)c1C(c1cccc(NS(=O)(=O)c3cc(Cl)sc3Cl)c1)C1CC1)CCCCCC2` (centres unmarked) [Example 304, 2,5-Dichloro-N-[3-[cyclopropyl(5,6,7,8,9,10-hexahydro-4-hydroxy-2-oxo-2H-cycloocta[b]pyran-3-yl)methyl]phenyl]-3-thiophenesulfonamide], for which, on HIV-1 protease [1], the Ki amounted to 27.9 nM. Further, on HIV-1 protease [2], the inhibition at 0.123 µM turned out to be 25.7%, the inhibition at 0.37 µM was found to be 60.2%, the inhibition at 1.1 µM was 85.9% and the inhibition at 3.3 µM amounted to 97.8%. Moreover, at HIV-1 protease [2], the inhibition at 10 µM came out at 104% and the inhibition at 30 µM is 95.6%.
In the case of `CC(=O)Nc1ccc(S(=O)(=O)Nc2cccc(C(c3c(O)c4c(oc3=O)CCCCCC4)C3CC3)c2)cc1` (centres unmarked) [Example 307, N-[4-[[[3-[Cyclopropyl(5,6,7,8,9,10-hexahydro-4-hydroxy-2-oxo-2H-cycloocta[b]pyran-3-yl)methyl]phenyl]amino]sulfonyl]phenyl]-acetamide], the Ki at HIV-1 protease [1] is 7.6 nM. Also, at HIV-1 protease [2], the inhibition at 0.123 µM was determined as 19.5%, the inhibition at 0.37 µM was 66.5%, the inhibition at 1.1 µM turned out to be 85.2% and the inhibition at 3.3 µM worked out at 97.8%. In addition, at HIV-1 protease [2], the inhibition at 10 µM turned out to be 105% and the inhibition at 30 µM came to 90.3%.
For `O=c1oc2c(c(O)c1C(c1cccc(NS(=O)(=O)c3ccc(N=Nc4ccccc4)cc3)c1)C1CC1)CCCCCC2` (centres unmarked) [Example 308, N-[3-[Cyclopropyl(5,6,7,8,9,10-hexahydro-4-hydroxy-2-oxo-2H-cycloocta[b]pyran-3-yl)methyl]phenyl]4-(phenylazo)-benzenesulfonamide], at HIV-1 protease [1], the Ki stood at 3.1 nM. For the same compound, on HIV-1 protease [2], the inhibition at 0.123 µM amounted to 46.5%, the inhibition at 0.37 µM is 70.4%, the inhibition at 1.1 µM turned out to be 82.3% and the inhibition at 3.3 µM is 91.3%. In addition, on HIV-1 protease [2], the inhibition at 10 µM amounted to 96.9% and the inhibition at 30 µM is 86.8%.
